One data set has as its target T1, human NPY Y5 receptor (Homo sapiens, UniProt Q15761).
T1 construct: expressed in transfected cells; host or cells: COS-7, CHO and LM(tk-)
T1 sequence (Q15761 1-445): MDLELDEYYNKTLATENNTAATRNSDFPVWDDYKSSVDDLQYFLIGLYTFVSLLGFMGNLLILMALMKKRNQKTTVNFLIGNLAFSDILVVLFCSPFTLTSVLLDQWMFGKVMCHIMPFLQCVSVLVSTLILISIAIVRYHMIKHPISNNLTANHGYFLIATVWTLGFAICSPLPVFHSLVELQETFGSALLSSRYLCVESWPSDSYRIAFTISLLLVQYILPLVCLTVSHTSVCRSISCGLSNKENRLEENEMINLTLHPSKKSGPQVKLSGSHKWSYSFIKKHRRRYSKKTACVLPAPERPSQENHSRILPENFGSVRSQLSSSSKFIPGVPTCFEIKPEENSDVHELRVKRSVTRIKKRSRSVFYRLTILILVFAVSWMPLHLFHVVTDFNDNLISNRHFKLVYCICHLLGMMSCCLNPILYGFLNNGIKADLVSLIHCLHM
Kind of data set: NPY binding inhibition test ([125I]peptide YY binding to membranes of NPY Y5 receptor expressing cells). Conditions: 25° C., 2 hours, membrane of NPY Y5 receptor expressing cells, read-out: IC50 against specific peptide YY binding. The text has this:
Pharmacological Test 1 (NPY Binding Inhibition Test)
cDNA sequence encoding human NPY Y5 receptor (c.f. International patent publication number WO96/16542) was cloned into expression vectors pcDNA3, pRc/RSV (made by Invitrogen Inc.) and pCI-neo (made by Promega Inc.). The expression vectors thus obtained were transfected to host cells COS-7, CHO and LM(tk-) (American Type Culture Collection) by cationic lipid method (Proceedings of the National Academy of Sciences of the United States of America, 84: 7413(1987)) to give NPY Y5 receptor expression cells.
A membrane sample prepared from the cells which expressed NPY Y5 receptor was incubated together with a test compound and [^125I]peptide YY (made by NEN) (20,000 cpm) in an assay buffer (25 mM Tris buffer, pH 7.4, containing 10 mM magnesium chloride, 1 mM phenylmethylsulfonyl fluoride, 0.1% bacitracin and 0.5% bovine serum albumin) at 25° C. for 2 hours, then filtered through a glass filter GF/C and washed with 5 mM Tris buffer (pH 7.4) containing 0.3% BSA. The radioactivity of the cake on the glass filter was measured. Non-specific binding was measured in the presence of 1 μM peptide YY, and a 50% Inhibitory Concentration (IC50) of the test compound against specific peptide YY binding was determined (Endocrinology, 131: 2090(1992)).

A short description of data set [1]: Brain/cerebrospinal fluid transport test. In kind it is in vivo, male SD rats. Conditions: rat, 2 hours after oral administration (10 mg/kg); for concentration at 2 h: male, SD. On the procedure:
Pharmacological Test 4 (Brain/Cerebrospinal Fluid Transport Test)
A test compound was orally or intravenously administered to male SD rats (7-10 weeks old, 200-400 g), and whole blood was collected from the abdominal aorta of said rats anesthetized with ether at predetermined time, using a heparin-treated syringe. Then, the head skin was cut open, and a dental 30 G needle was inserted between the cervical vertebrae, and it was further inserted into the cavum subarachnoideale. After 50 to 100 μL cerebrospinal fluid had been collected by a 1 ml-syringe through a tube connected to said dental 30 G needle, the brain was extracted. The blood sample was centrifuged (4° C., 6,000 r.p.m., 10 minutes) to collect the plasma, to which was added 3-fold amount of ethanol containing an internal standard, and the mixture was stirred. The brain sample was homogenized after addition of 2 ml water, an aliquot of the homogenate was taken and 3-fold amount of ethanol containing an internal standard was added thereto and stirred. The cerebrospinal fluid was stirred after adding 3-fold amount of ethanol containing an internal standard. The samples thus obtained were allowed to stand at −20° C. for 20 minutes, and then centrifuged (4° C., 12,000 g, 10 minutes). The supernatant was analyzed by LC/MS/MS, and the concentration of the test compound in the plasma, brain, and cerebrospinal fluid were measured by the method using a relative calibration curve.

A short description of data set [2]: Pharmacokinetics test (plasma concentration after oral or intravenous administration). In kind it is in vivo. Conditions: rat, male SD rats. On the procedure:
Pharmacological Test 3 (Pharmacokinetics Test)
A test compound was orally or intravenously administered to male SD rats (7-10 weeks old, 200-400 g) which abstained from food overnight. About 100 μL of blood was collected from the tail vein at predetermined time, using a heparinized capillary. The blood was centrifuged (4° C., 6,000 r.p.m., 10 minutes) to collect the plasma, to which was added 3-fold amount of ethanol containing an internal standard. The mixture was stirred, allowed to stand at −20° C. for 20 minutes, and then centrifuged (4° C., 10,000 r.p.m., 10 minutes). The supernatant was analyzed by LC/MS/MS, and the concentration of the test compound in the plasma was measured using a relative calibration curve.

Read-outs that look alike come from different tables or passages of the source.

Take `O=C1OC2(CCC(c3nc4cnc(-c5ccccc5)nc4[nH]3)CC2)c2ccccc21` (stereo not drawn) [Example 6, trans-8-[3′-oxospiro[cyclohexane-1,1′(3′H)-isobenzofuran]-4-yl]-2-phenylpurine]: the IC50 (usually the midpoint of a concentration-inhibition curve) at human NPY Y5 receptor worked out at 2.2 nM. Besides, the concentration at 2 h in data set [1] (cerebrospinal fluid, read-out: concentration in the cerebrospinal fluid) came to 33 nM; in data set [1] (plasma, read-out: concentration in the plasma) it was 2770 nM. Also, the “concentration in the brain” value in data set [1] was 1.10 nmol/g. In data set [2] (oral or intravenous administration), the bioavailability (usually the share of a dose that reaches the circulation, judged against a reference dose that is usually intravenous) is 78%. The half-life – broadly, the time needed for the level to fall by half in the phase considered – in data set [2] (read-out: half-life in the blood (converted)) is 180 min.
For `O=C1OC2(CCC(c3nc4cnc(-c5ccccc5F)nc4[nH]3)CC2)c2ccccc21` (stereo not drawn) [Example 8, Trans-2-(2-fluorophenyl)-8-[3′-oxospiro[cyclohexane-1,1′(3′H)-isobenzofuran]-4-yl]purine], the 50% inhibitory concentration (IC50) at human NPY Y5 receptor came to 1.8 nM.
Still for that read-out and setting: under `O=C1OC2(CCC(c3nc4cnc(-c5ccc(F)cc5)nc4[nH]3)CC2)c2cnccc21` (stereo not drawn) [Example 13, Trans-2-(4-fluorophenyl)-8-[3-oxospiro[6-azaisobenzofuran-1(3H),1′-cyclohexan]-4′-yl]purine] stands 2.9 nM; under `O=C1OC2(CCC(c3nc4cnc(-c5cc(F)ccc5F)nc4[nH]3)CC2)c2cnccc21` (stereo not drawn) [Example 17, Trans-2-(2,5-difluorophenyl)-8-[3-oxospiro[6-azaisobenzofuran-1(3H),1′-cyclohexan]-4′yl]purine], 2.7 nM.
On the same count and under the same terms, under `O=C1OC2(CCC(c3nc4cnc(-c5ccccc5F)nc4[nH]3)CC2)c2cnc(F)cc21` (stereo not drawn) [Example 20, Trans-8-[5-fluoro-3-oxospiro[6-azaisobenzofuran-1(3H),1′-cyclohexan]-4′-yl]-2-(2-fluorophenyl)purine] stands 2.3 nM; under `O=C1OC2(CCC(c3nc4ccc(-c5ccccc5F)nc4[nH]3)CC2)c2cnccc21` (stereo not drawn) [Example 27, Trans-5-(2-fluorophenyl)-2-[3-oxospiro[6-azaisobenzofuran-1(3H),1′-cyclohexan]-4′-yl]imidazo[4,5-b]pyridine], 0.72 nM.

These data come from patent publication US7687514B2, “Benzimidazole derivatives” (Banyu Pharmaceuticals Co., Ltd., priority 2002, dated 2010).
